Reference: patent US4542153A, “Methods for changing calcium metabolism within the cells of a mammal” (The Ohio State University Research Foundation, priority 1983, dated 1985)
Entries after “also recorded” stand apart in the source; their conditions may differ.

What was measured:
[1] = test system: thoracic aorta strips contracted with potassium chloride; assay: Vasodilator activity: potassium chloride-contracted aortic strips; assay type: cell-based, male Sprague-Dawley rats; conditions: rat aorta contracted with 40 mM potassium chloride; read-out: IC50 (mean and range of SEM) KCl
Text: (§1) Pr-MDI, bu-MDI, Q-bu-MDI and the compounds of Formulae IIIA, IIIB and IVA having the two R1 groups together forming a methylene group, each R3 a methyl group and R2 an n-propyl group or n-butyl group (the compounds of Formula III are hereinafter abbreviated as sat-pr-MDI and sat-bu-MDI respectively, reference being made where necessary to the cis isomer of Formula III A or the trans isomer of Formula III B while the compounds of Formula IV are similarly referred to as cis sat-Q-pr-MDI and cis sat-Q-bu-MDI) were tested for vasodilator activity by the method of R. F. Furchgott and S. Bhadrakom, J. P. Pharmacol. Ex. Ther., 108, 129-143 (1953).
(§2) The vasodilator activity tests were conducted on male Sprague-Dawley rats, obtained from Harlan Industries, Inc., Cumberland, Indiana. The rats, weight 250-300 g., were sacrified by cervical dislocation and a 2.5 cm. segment of the thoracic aorta was removed and rinshed in physiological buffer. Each aortic segment was cleaned of connective tissue and cut spirally two yield to strips, each 3 by 15 mm. Each strip was mounted isometrically under a tension of 1 g in a 10 ml. tissue bath thermostatically maintained at 37° C. and containing a normal physiological solution aerated with a 95% oxygen/5% carbon dioxide mixture. Forces generated by the strip were monitored using a Grass FT03 isometric transducer coupled to a Grass module 7D polygraph recorder, both the transducer and the recorder being obtained from Grass Instrument Co., of Quincy, Mass.
(§3) After the aortic tissue had been allowed to equilibriate for 1-1.5 hours in the normal physiologic solution, tissue contraction was induced by introducing either 10^-7 M norepinephrine or 40mM potassium chloride buffer to the tissue bath.
(§4) To avoid interference by loss of tension due to time dependent tissue fatigue, separate preliminary experiments were performed to determine the degree of tissue relaxation due to such fatigue and the value of the control tension generated by norepinephrine or potassium chloride prior to the addition of the test compounds was adjusted whenever the duration of the experiment was such that fatigue could be expected to cause more than a 6% loss of tension. […] All concentrations mentioned hereinafter represent the final concentration of the test compound after dilution in the tissue bath.
(§5) The figures of concentration against percent response data obtained from each aortic tissue were transformed to its appropriate probit value and IC50 values were then estimated using linear regression analysis. The normal physiological solution contained 6.9 g/l of sodium chloride, 0.35 g/l of potassium chloride, 0.11 g/l of magnesium chloride hexahydrate, 0.138 g/l of sodium dihydrogen phosphate, 2.1 g/l of sodium bicarbonate, 0.01 g/l of EDTA, 0.368 g/l of calcium chloride dihydrate and 2.0 g/l of dextrose. The high potassium buffers were obtained by substituting potassium chloride for sodium chloride on an equimolar basis to maintain tonicity.

[2] = test system: thoracic aorta strips contracted with norepinephrine; assay: Vasodilator activity: norepinephrine-contracted aortic strips; assay type: cell-based, male Sprague-Dawley rats
Text: as §1, §2, §3, §4, §5

[3] = test system: chloroform anoxia arrhythmia in mice; assay: Chloroform Anoxia Assay (chloroform-induced ventricular fibrillation); assay type: in vivo, Female Swiss albino mice
Experimental: The same four compounds were tested for their ability to protect mice from chloroform anoxia by the classical chloroform inhalation procedure described in Lawson J. W.: Antiarrhythmic activity of some isoquinoline derivatives determined by a rapid screening procedure in the mouse, J. Pharmacol. Exp. Ther. 160: 22-31, (1968). In this method, chloroform inhalation leading to respiratory arrest produces ventricular fibrillation. Female Swiss albino mice procured from Laboratory Supply Company, Indianapolis, Indiana, weighing 16-22 g, were pretreated intraperitoneally with the compound under test dissolved in a 5% dextrose solution 10 minutes before exposure to chloroform in a closed container containing chloroform-saturated cotton. The mice were removed from the chloroform atmosphere immediately after respiratory arrest and the electrocardiograph lead II monitored. The ED 50 and 95% confidence limits calculated for the anti-arrhythmic agents by the standard method of Litchfield and Wilcoxon.

[4] = test system: isolated left atria; assay: Effects on isolated guinea pig atria: electrically driven left atria; assay type: cell-based
Text: The effects of pr-MDI, bu-MDI and Q-bu-MDI on the mechanical and electrical behavior of isolated guinea pig atria were investigated by the method of H. Nawrath, J. Pharmacol. Exp. Ther., 16, 176-182 (1980). The compounds were investigated over the concentration range of 10^-8 to 3×10^-4 M.
English short-haired guinea pigs, supplied by Carr Animal Supply, of Powell, Ohio, weighing 300-600 g. were killed by a blow on the head and both atria of the animal were quickly dissected out and suspended in a water-jacketed organ bath containing Krebs-Henseleit solution through which a 95% oxygen/5% carbon dioxide mixture was bubbled at 32° C. The solution contained 6.92 g/l of sodium chloride, 0.35 g/l of potassium chloride, 0.29 g/l of magnesium […] heptahydrate, 0.3 g/l of calcium chloride dihydrate, 0.16 g/l of potassium dihydrogen phosphate, 2.1 g/l of sodium bicarbonate and 2.1 g/l of dextrose. The contractile force generated by the isolated artria was recorded isometrically under a 500 mg. preload using a Narco Biosystems force transducer connected to a physiograph DMP-4B recorder, both the transducer and the recorder being obtained from E & M Instrument Co. of Houston, Texas.
The isolated left atria were electrically driven by square wave impulses of 3 milliseconds duration at a frequency of 3 Hz. and a voltage of twice the threshold voltage, delivered by a Grass S9 stimulator obtained from Grass Instrument Co., of Quincy, Massachusetts. Two platinum electrodes were used for the stimulation, the anode being in direct contact with the atrial tissue while the cathode had the form of a ring suspended 2.5 centimeters above the anode. Before redetermination of the threshold voltage and generation of a predrug (control) frequency-force profile over the range of 1-5 Hz., an equilibriation time of one hour was allowed. The system was then re-equilibriated at 3 Hz. and twice the threshold voltage as before, then one cumulative dose-response curve of contractile force for one test compound was obtained, followed immediately by redetermination of the threshold voltage and the generation of a post-drug frequency-force profile.
A paired Student's t-test was used to compare predrug and postdrug threshold voltages for each left atrial preparations as well as to compare developed tension at each frequency in the profile of each left atrial preparation. P values of less than 0.05 were considered statistically significant.

## CCCCC1=Cc2cc3c(cc2C1[N+](C)(C)C)OCO3.[I-] (stereo not drawn) [Q-bu-MDI, 2-Butyl-5,6-methylenedioxyindene-1-trimethylammonium iodide]
[1]
  IC50: 169 µM
[2]; norepinephrine- or KCl-treated tissue
  relaxation of the aortic tissue: relaxed the aortic tissue
[2]; norepinephrine-treated aortic tissue
  comparative vasodilator activity, norepinephrine-treated tissue: less active in vitro than their tertiary analogs
[2]; rat aorta contracted with 10^-7 M norepinephrine, read-out: IC50 (mean and range of SEM) Norepinephrine
  IC50: 128 µM
[3]; ED50 from chloroform anoxia, LD50 i.p.
  Therapeutic Index (LD50/ED50): 6.2
[3]; i.p., 10 min before chloroform, table: mean values and 95% confidence limits, n = 40
  ED50: 10.5 mg/kg
[3]; i.p., p<<0.05
  ED50 compared with quinidine (statistical test): significantly smaller than that of quinidine
[3]; quinidine = 1.00, chloroform anoxia
  Antiarrhythmic Potency: 6.38
[4]; 3×10^-4 M
  effect on frequency-force profile/relation of the stimulated left atrium: no significant effect
  effect on the contractile force of left atrium at the highest concentration: partially reversed
  effect on threshold voltage required to drive the atria: no significant effect upon the threshold voltage
[4]; 10^-4 M, 100 µM
  dose-dependent decrease in the contractile force of the electrically stimulated left atrium: ≤ 20%
[4]; 10^-8 to 3×10^-4 M
  effect on contractile force of the electrically stimulated left atrium: very modest; also recorded: much less than the other two compounds
  overall effect on mechanical and electrical behavior of atria: much smaller than that of bu-MDI or pr-MDI
[4]; maximum concentration 3×10^-4 M
  persistent effects on frequency-force relation and threshold voltage: did not produce any persistent effects
